Measured values as given in patent US20100190826A1, “BENZIMIDAZOLE DERIVATIVE” (priority 2007, published 2010).

Tests used:
human 17βHSD type 3 = target: T1, human 17βHSD type 3 (Homo sapiens, UniProt P37058); experiment: Measurement of enzyme activity of human 17βHSD type 3; type: biochemical; conditions: enzyme source: supernatant of transformed 293 cells; read-out: Type3 IC50
T1 construct: A full-length cDNA encoding human 17βHSD type 3; made in house; host or cells: human fetus kidney-derived 293 cells (transient, 24 h); supernatant of disrupted cells
T1 sequence (P37058 1-310): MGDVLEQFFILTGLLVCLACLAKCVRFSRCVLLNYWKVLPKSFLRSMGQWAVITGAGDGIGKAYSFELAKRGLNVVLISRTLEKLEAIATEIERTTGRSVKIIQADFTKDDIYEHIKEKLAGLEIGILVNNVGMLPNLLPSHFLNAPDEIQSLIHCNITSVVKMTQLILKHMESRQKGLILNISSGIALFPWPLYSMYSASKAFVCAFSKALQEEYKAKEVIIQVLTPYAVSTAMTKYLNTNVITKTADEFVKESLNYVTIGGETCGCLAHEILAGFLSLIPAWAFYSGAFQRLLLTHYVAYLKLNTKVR
Source text: (§1) An excellent selective inhibitory activity against human 17βHSD type 5 of the compounds of the present invention was confirmed by the test method described below. In this connection, the test may be carried out by referring to the details of test procedure described in Maniatis, T. et al., Molecular Cloning—A Laboratory Manual Cold Spring Harbor Laboratory, NY (1982) and the like. In addition, genes encoding human 17βHSD type5 and type3 described in Sections 1 and 2 below, and human 17βHSD type 5 and type 3 may be obtained by the method described in Molecular Endocrinology, 1997, 11(13), 1971-1984.
2. Isolation of Gene Encoding Human 17βHSD Type 3 and Enzyme Purification
A full-length cDNA encoding human 17βHSD type 3 used in the pharmacological test of the present invention was obtained by the PCR method using a cDNA derived from human testis as a template. The nucleotide sequence of the obtained cDNA was analyzed by the dideoxyterminator method, and the clone matched with the known human 17βHSD type 3 sequence (GenBank accession No. BCO34281) was selected. Subsequently, human fetus kidney-derived cell line, 293 cells, were transformed with a plasmid containing the cDNA, and the cells were collected 24 hours later. The collected cells were then disrupted in a phosphate buffer solution containing 5% glycerol (500 μL per 100 mm-dish of a phosphate buffer solution (pH 7.4, 200 mM) containing 5% glycerol) and centrifuged (16000 rpm, 5 min, 4° C.), and the supernatant was used as an enzyme source.
(§2) 3. Measurement of Enzyme Activities of Human 17βHSD Type 5 and Type 3
(§3) Enzyme activity was measured referring to Trevor M. Penning, et al., Biochem. J., 351, 67-77, (2000). Specifically, using a 100 mM potassium phosphate buffer (pH 6.0), (1) the enzyme purified in Section 1 at a final concentration of 10 μg/mL, (2) androstenedione at a final concentration of 300 nM, (3) NADPH at a final concentration of 200 μM, and (4) a test substance, were mixed to react at room temperature for 2 hours, and then the amount of testosterone produced was measured using DELFIA (registered trademark) Testosterone Reagents R050-201 (manufactured by PerkinElmer). The measurement was performed in accordance with the attached instructions. The amount of reduction of testosterone production in the presence of the compound was obtained as a relative value with respect to the amount of testosterone in the absence of the enzyme set at 0% and the amount of testosterone produced in the absence of the compound set at 100%. Then, IC50 values were calculated by the Logistic regression method.

human 17βHSD type 5 = target: T2, human 17βHSD type 5 (Homo sapiens, UniProt P42330); experiment: Measurement of enzyme activity of human 17βHSD type 5 (testosterone production from androstenedione); type: biochemical; conditions: purified enzyme 10 μg/mL, androstenedione 300 nM, NADPH 200 μM, pH 6.0, room temperature 2 hours; read-out: Type5 IC50
T2 construct: A full-length cDNA encoding human 17βHSD type 5; GST (cleaved yes); made in house; host or cells: Escherichia coli BL21
T2 sequence (P42330 1-323): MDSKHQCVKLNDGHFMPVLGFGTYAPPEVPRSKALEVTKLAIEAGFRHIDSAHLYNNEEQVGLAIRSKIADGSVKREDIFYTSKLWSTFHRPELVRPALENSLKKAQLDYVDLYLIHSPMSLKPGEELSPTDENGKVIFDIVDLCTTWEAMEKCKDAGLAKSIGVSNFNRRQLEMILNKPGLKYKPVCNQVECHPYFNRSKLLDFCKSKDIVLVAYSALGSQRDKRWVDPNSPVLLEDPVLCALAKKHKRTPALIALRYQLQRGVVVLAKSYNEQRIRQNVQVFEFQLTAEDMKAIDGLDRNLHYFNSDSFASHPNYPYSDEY
Source text: as §1
1. Isolation of Gene Encoding Human 17βHSD Type 5 and Enzyme Purification
A full-length cDNA encoding human 17βHSD type 5 used in the pharmacological test of the present invention was obtained by the PCR method using a cDNA derived from a human lung cancer-derived cell line, A549 cells as a template. The nucleotide sequence of the obtained cDNA was analyzed by the dideoxyterminator method, and the clone matched with the known human 17βHSD type 5 sequence (GenBank accession No. NM_003739) was selected. Escherichia coli BL21 was transformed with a plasmid containing the cDNA and cultured on a large scale. The proteins were purified by using GSTrapFF column (manufactured by Amersham) and PreScissionProtease (manufactured by Amersham). The purification method was carried out in accordance with the instructions attached to the GSTrapFF column.
as §2, §3

[1] = target: T3, human 17βHSD type 5-expressing LNCaP cells (Homo sapiens, UniProt P42330); experiment: Cell growth inhibitory activity using LNCaP cells expressing human 17βHSD type 5 (androstenedione-stimulated, CellTiter-Glo); type: cell-based; conditions: androstenedione 10 nM, culturing for 7 days; read-out: LNCaP-17β5 IC50
T3 sequence (P42330 1-323): T2 sequence (P42330 1-323)
Procedure: Subsequently, LNCaP cells expressing human 17βHSD type 5 were constructed from a human prostate cancer-derived cell line, LNCaP cells, and a cell growth inhibitory activity of the compound of the present invention was evaluated.
4. Construction of LNCaP Cells Expressing Human 17βHSD Type 5
A full-length cDNA encoding human 17βHSD type 5 used in the pharmacological test of the present invention was obtained by the PCR method using a cDNA derived from a human lung cancer-derived cell line, A549 cells, as a template. The nucleotide sequence of the obtained cDNA was analyzed by the dideoxyterminator method, and the clone matched with the known human 17βHSD type 5 sequence (GenBank accession No. NM_003739) was selected. The human prostate cancer-derived cell line LNCaP cells were transformed with a plasmid containing the cDNA and the cell line showing stable expression was obtained.
5. Measurement of Cell Growth Capability Using LNCaP Cells Expressing Human 17βHSD Type 5
9000 cells/well of the transformed cells obtained in Section 4 above were seeded in a 96-well plate and cultured overnight. Then, androstenedione, in conjunction with a test compound, was added thereto at a final concentration of 10 nM, followed by culturing for 7 days. After the culturing, number of the cells was counted using a CellTiter-Glo (registered trademark) Luminescent Cell Viability Assay (Promega). The CellTiter-Glo (registered trademark) Luminescent Cell Viability Assay is a reagent that measures the number of the cells by monitoring an intracellular ATP level from the luminescence intensity by luciferase. The experimental manipulation was carried out in accordance with the attached instructions. The cell growth inhibitory activity in the presence of a test compound was calculated as a relative value with respect to the number of the cells in the absence of androstenedione set at proliferation of 0%, and the number of the cells in the presence of androstenedione and in the absence of the test compound set at proliferation of 100%. Then, IC50 values were calculated by the Logistic regression method.

5α-reductase = conditions: patients with BPH, after administration of finasteride; cited from earlier work

O=C(O)c1cccc(-n2cc(-c3ccccc3)c3cc(C(F)(F)F)ccc32)c1 [Example 6]
IC50 (human 17βHSD type 3): 1.8 µM | IC50 (human 17βHSD type 5): 0.05 µM | GI50 [1]: 0.046 µM

N#Cc1ccc2c(ccn2-c2cccc(C(=O)O)c2)c1 [Example 1, 3-(5-cyano-1H-indol-1-yl) benzoic acid]
IC50 (human 17βHSD type 3): > 10 µM | IC50 (human 17βHSD type 5): 0.2 µM | GI50 [1]: 6.68 µM

O=C(O)c1cccc(-n2c(COc3ccccc3)nc3cc(C(F)(F)F)ccc32)c1 [Example 44]
IC50 (human 17βHSD type 5): 0.04 µM | GI50 [1]: 0.034 µM

COc1nc2cc(C(F)(F)F)ccc2n1-c1cccc(C(=O)O)c1 [Example 32]
IC50 (human 17βHSD type 5): 0.12 µM | GI50 [1]: 0.046 µM

O=C(O)c1cccc(-n2c(Cc3ccccc3)nc3cc(C(F)(F)F)ccc32)c1 [Example 38]
IC50 (human 17βHSD type 3): > 10 µM | IC50 (human 17βHSD type 5): 0.096 µM | GI50 [1]: 0.045 µM

CC(C)(C)NC(=O)[C@H]1CC[C@H]2[C@@H]3CC[C@H]4NC(=O)C=C[C@]4(C)[C@H]3CC[C@]12C [finasteride]
concentration of DHT in the prostate relative to the concentration before the administration (5α-reductase): about 20% | increase of the concentration of testosterone in the prostate (5α-reductase): 4 fold

O=C(O)c1cccc(-n2cnc3cc(C(F)(F)F)ccc32)c1 [Example 20]
IC50 (human 17βHSD type 3): 7.3 µM | IC50 (human 17βHSD type 5): 0.12 µM | GI50 [1]: 0.101 µM

O=C(O)c1cccc(-n2c(-c3ccccc3)nc3cc(C(F)(F)F)ccc32)c1 [Example 17]
IC50 (human 17βHSD type 3): 6.4 µM | IC50 (human 17βHSD type 5): 0.18 µM | GI50 [1]: 0.066 µM

COCCc1cn(-c2cccc(C(=O)O)c2)c2ccc(C(F)(F)F)cc12 [Example 47, 3-[3-(2-methoxyethyl)-5-(trifluoromethyl)-1H-indol-1-yl]benzoic acid]
IC50 (human 17βHSD type 3): 2.5 µM | IC50 (human 17βHSD type 5): 0.18 µM | GI50 [1]: 0.092 µM

Cc1nc2cc(C(F)(F)F)ccc2n1-c1cccc(C(=O)O)c1 [Example 21]
IC50 (human 17βHSD type 3): 4.7 µM | IC50 (human 17βHSD type 5): 0.11 µM | GI50 [1]: 0.102 µM

O=C(O)c1cccc(-n2c(C(F)(F)F)nc3cc(C(F)(F)F)ccc32)c1 [Example 54, 3-[2,5-bis(trifluoromethyl)-1H-benzimidazol-1-yl]benzoic acid]
IC50 (human 17βHSD type 3): 3.2 µM | IC50 (human 17βHSD type 5): 0.07 µM | GI50 [1]: 0.141 µM
